Experimental data published in US10105331B2, “Substituted aromatic compounds and pharmaceutical compositions for the prevention and treatment of diabetes” (PROMETIC PHARMA SMT LIMITED, priority 2014, dated 2018).
“And” between values parts separate entries of the source, which are not always exact repeats. Identical values can stand only once.

Tests used:
β-TC-6 cells = assay: Glucose-induced insulin secretion by β-TC-6 cells (insulin ELISA of supernatants); type: cell-based; details: for Insulin: glucose-induced insulin secretion by β-TC-6 cells, stimulation of 11 mM glucose, control 53; for % Control (insulin secretion, individual values) / Average % Control (insulin secretion): β-TC-6 cells
Experimental: β-TC-6 cells where used to determine if compounds according to the present invention were able to induce the production of insulin with or without stimulation with glucose. Briefly, β-TC-6 cells (200,000 cells/ml) were incubated in DMEM media and 15% heat inactivated serum in presence of absence of glucose (0.8M) with/without Compound I for 30 minutes and further incubated for 2 hours with a solution of Krebs containing 2.5, 11 and 25 mM glucose. Supernatants were collected and used for the detection of insulin (ELISA) performed as recommended by the supplier.

[1] = system: uninephrectomized db/db mice; assay: Diabetic mouse (db/db) model, uninephrectomized: blood glucose, insulin, glucose/insulin ratio, islet insulin staining; type: in vivo; details: for blood glucose level: 105 days
Experimental: (§1) Male Lepr db (db/db) and age- and sex-matched control mice with the same genetic background (C57BL/6) were used. Animals were randomized using blood sugar measurement (5-hours starved) at week 6 and uninephrectomy (removal of right kidney) was performed. Sham animals (C57BL/6) underwent exposition of the right kidney. Animals that underwent the sham operation were given vehicle (saline) and were used as negative controls. C57BL/6 mice that were uninephrectomized were given vehicle and were used as positive controls. Db/db mice were treated with oral administration of compound I at 10 and 50 mg/kg per day for 105 days. Serum glucose was measured every two to four weeks.

[2] = system: uninephrectomized db/db mice; assay: Blood triglycerides level in serum of uninephrectomized db/db mice; type: in vivo; details: 10 or 50 mg/kg
Experimental: as §1
It is known that blood triglycerides is often associated with diabetes. High triglyceride levels in the blood tend to coexist with low levels of HDL (“good”) cholesterol, contributing to a condition called diabetic dyslipidemia. It is also known that a combination of high triglycerides, low HDL and central obesity are the hallmarks of the metabolic syndrome, which occurs in a majority people with type 2 diabetes.

[3] = glucose 11 mM, Compound I 40 μM
[4] = glucose 11 mM, Compound I 80 μM
[5] = 50 mg/kg per day oral, NX db/db mice
[6] = uninephrectomized db/db mice, dose not stated in legend

Compound: CCCCCc1cc(CCCCC)c(O)c(CC(=O)[O-])c1.[Na+] [Compound III, Sodium Salt of 2-(2-Hydroxy-3,5-dipentylphenyl)acetic acid]
- Insulin (β-TC-6 cells): 109 ng/mL

Compound: CCCCCc1cc(CCCCC)c(Cc2ccccc2)c(CC(=O)[O-])c1.[Na+] [Compound IX, Sodium Salt of 2-(2-Benzyl-3,5-dipentylphenyl)acetic Acid]
- Insulin (β-TC-6 cells): 110 ng/mL

Compound: CCCCCCc1cc(CCCCCC)cc(CC(=O)[O-])c1.[Na+] [Compound II, Sodium Salt of 2-(3,5-Dihexylphenyl)acetic acid]
- Insulin (β-TC-6 cells): 123 ng/mL

Compound: CCCCCCc1cc(CC(=O)[O-])cc(CCCCCC)c1O.[Na+] [Compound VI, Sodium Salt of 2-(3,5-Dihexyl-4-hydroxyphenyl)acetic acid]
- Insulin (β-TC-6 cells): 67 ng/mL

Compound: CCCCCCc1cc(CCCCCC)c(O)c(CC(=O)[O-])c1.[Na+] [Compound IV, Sodium Salt of 2-(3,5-Dihexyl-2-hydroxyphenyl)acetic acid]
- Insulin (β-TC-6 cells): 147 ng/mL

Compound: CCCCCc1cc(CC(=O)[O-])cc(CCCCC)c1O.[Na+] [Compound V, Sodium Salt of 2-(4-Hydroxy-3,5-dipentylphenyl)acetic acid]
- Insulin (β-TC-6 cells): 59 ng/mL

Compound: CCCCCc1cc(CCCCC)cc(CC(=O)[O-])c1.[Na+] [Compound I, Sodium 2-[3,5-Dipentylphenyl]acetate]
- % Control (insulin secretion, individual values) (β-TC-6 cells; [3]): 195.41 % Control and 187.16 % Control and 135.78 % Control and 149.35 % Control and 151.88 % Control and 143.13 % Control
- Average % Control (insulin secretion) (β-TC-6 cells; [3]): 160.45 % Control
- % Control (insulin secretion, individual values) (β-TC-6 cells; [4]): 192.66 % Control and 174.31 % Control and 203.67 % Control and 145.51 % Control and 129.29 % Control and 200.78 % Control
- Average % Control (insulin secretion) (β-TC-6 cells; [4]): 174.37 % Control
- Insulin (β-TC-6 cells): 76 ng/mL
- % Control (insulin secretion, individual values) (β-TC-6 cells; no glucose, Compound I 40 μM): 53.76 % Control and 86.02 % Control and 47.31 % Control and 155.22 % Control and 135.63 % Control and 130.81 % Control
- Average % Control (insulin secretion) (β-TC-6 cells; no glucose, Compound I 40 μM): 101.46 % Control
- % Control (insulin secretion, individual values) (β-TC-6 cells; no glucose, Compound I 80 μM): 79.57 % Control and 38.71 % Control and 70.97 % Control and 123.28 % Control and 114.63 % Control and 177.33 % Control
- Average % Control (insulin secretion) (β-TC-6 cells; no glucose, Compound I 80 μM): 100.75 % Control
- glucose-induced insulin production in β-TC-6 cells (β-TC-6 cells; with or without glucose): increased with Compound I in presence of glucose only
- blood glucose level ([1]; 10 mg/kg per day oral, compared to NX db/db): reduces blood glucose compare to NX db/db but stay stable over time
- insulin level ([1]; 10 mg/kg per day oral, NX db/db mice): keeps a high insulin level (stabilization compare to Day 0)
- blood glucose level [1, 5]: induces a significant decrease in blood glucose to a normal level
- insulin level [1, 5]: reduces the insulin level close to a normal level
- histoimmunostaining of insulin in the pancreatic islets ([1]; both concentrations (10 or 50 mg/kg), db/db Nx mice): reverses the loss of insulin detection
- glucose/insulin ratio (insulin resistance) ([1]; day 33, uninephrectomized db/db mice): reduces the glucose/insulin ratio
- glucose/insulin ratio (insulin resistance) ([1]; day 105, uninephrectomized db/db mice): reduces the glucose/insulin ratio
- blood glucose level (FIG. 1 legend) [1, 6]: reduces blood glucose level down to normal level
- insulin secretion (FIG. 2 legend) [1, 6]: reverses the fall of insulin secretion
- blood triglyceride level in serum [2]: reduced the blood triglyceride level
- melting point: 225 to 230 °C

Compound: CCCCCc1cc(CCCCC)cc(CCC(=O)[O-])c1.[Na+] [Compound XI, Sodium 3-[3,5-Dipentylphenyl]propanoate]
- Insulin (β-TC-6 cells): 89 ng/mL

Compound: CCCCCc1cc(CC(=O)[O-])cc(CCCCC)c1F.[Na+] [Compound VIII, Sodium Salt of 2-(4-Fluoro-3,5-dipentylphenyl)acetic acid]
- Insulin (β-TC-6 cells): 64 ng/mL

Compound: CCCC/C=C/c1cc(/C=C/CCCC)cc(CC(=O)[O-])c1.[Na+] [Compound XII, Sodium Salt of 2-(3,5-Di((E)-hex-1-enyl)phenyl)acetic acid]
- Insulin (β-TC-6 cells): 70 ng/mL

Compound: CCC/C=C/c1cc(/C=C/CCC)cc(CC(=O)[O-])c1.[Na+] [Compound X, Sodium 2-[3,5-Di[(E)-Pent-1-enyl]phenyl]acetate]
- Insulin (β-TC-6 cells): 102 ng/mL
